From patent publication US9133158B2, “Bicyclic dihydroisoquinoline-1-one derivatives” (Hoffmann-La Roche Inc., priority 2011, dated 2015)

Experiments:
human CYP11B2 = target: T1, human CYP11B2 (Homo sapiens, UniProt P19099); test: G-402 cellular enzyme assay, human CYP11B2 (aldosterone release, HTRF); type: cell-based; details: G-402 cells, 1 μM Deoxycorticosterone
T1 construct: expressed in transfected cells
T1 sequence (P19099 25-503): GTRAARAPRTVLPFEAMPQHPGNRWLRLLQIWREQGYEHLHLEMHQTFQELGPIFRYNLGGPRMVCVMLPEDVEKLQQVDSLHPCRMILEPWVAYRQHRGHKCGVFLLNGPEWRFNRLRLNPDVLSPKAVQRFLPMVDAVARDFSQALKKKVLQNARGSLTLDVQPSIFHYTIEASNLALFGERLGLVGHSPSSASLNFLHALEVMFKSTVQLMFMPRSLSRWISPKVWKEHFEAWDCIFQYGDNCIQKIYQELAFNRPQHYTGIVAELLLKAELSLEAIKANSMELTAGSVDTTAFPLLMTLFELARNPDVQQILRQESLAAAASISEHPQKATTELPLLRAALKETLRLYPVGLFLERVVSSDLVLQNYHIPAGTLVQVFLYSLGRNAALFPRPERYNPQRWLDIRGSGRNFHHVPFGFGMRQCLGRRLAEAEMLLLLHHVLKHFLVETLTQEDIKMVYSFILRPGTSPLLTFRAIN
Excerpt: (§1) Herein we identified the use of the G-402 cell line as a host cell to ectopically express (transiently or stably) enzymes of the CYP11 family. Specifically we developed stable G-402 cells expressing ectopically human CYP11B1, human CYP11B2, human CYP11A1, cynmolgus CYP11B1 or cynomolgus CYP11B2 enzyme activity. Importantly the identified cell line G-402 expresses co-factors (adrenodoxin and adrenodoxin reductase) important for the activity of the CYP11 family and no relevant enzyme activity of the CYP11 family (in comparison to H295R cells) was detected in these cells. Therefore the G-402 cell line is uniquely suited as a host cell for the ectopic expression of enzymes from the CYP11 family.
(§2) G-402 cells can be obtained from ATCC(CRL-1440) and were originally derived from a renal leiomyoblastoma.
(§3) The expression plasmids contain the ORF for either human/cyno CYP11B1 or CYP11B2 under the control of a suitable promoter (CMV-promoter) and a suitable resistance marker (neomycin). Using standard techniques the expression plasmid is transfected into G-402 cells and these cells are then selected for expressing the given resistance markers. Individual cell-clones are then selected and assessed for displaying the desired enzymatic activity using 11-Deoxycorticosterone (Cyp11B2) or 11-Deoxycortisol (Cyp11B1) as a substrate.
(§4) G-402 cells expressing CYP11 constructs were established as described above and maintained in McCoy's 5a Medium Modified, ATCC Catalog No. 30-2007 containing 10% FCS and 400 μg/ml G418 (Geneticin) at 37° C. under an atmosphere of 5% CO2/95% air.
(§5) Cellular enzyme assays were performed in DMEM/F12 medium containing 2.5% charcoal treated FCS and appropriate concentration of substrate (0.3-10 uM 11-Deoxycorticosterone, 11-Deoxycortisol or Corticosterone). For assaying enzymatic activity, cells were plated onto 96 well plates and incubated for 16 h. An aliquot of the supernatant is then transferred and analyzed for the concentration of the expected product (Aldosterone for CYP11B2; Cortisol for CYP11B1). The concentrations of these steroids can be determined using HTRF assays from CisBio analyzing either Aldosterone or Cortisol.
(§6) Inhibition of the release of produced steroids can be used as a measure of the respective enzyme inhibition by test compounds added during the cellular enzyme assay. The dose dependent inhibition of enzymatic activity by a compound is calculated by means of plotting added inhibitor concentrations (x-axes) vs. measured steroid/product level (y-axes). The inhibition is then calculated by fitting the following 4-parameter sigmoidal function (Morgan-Mercer-Flodin (MMF) model) to the raw data points using the least squares method:
(§7) [formula] wherein, A is the maximum y value, B is the EC50 factor determined using XLFit, C is the minimum y value and D is the slope value.
(§8) EC50 values for compounds claimed herein were tested with the G402-based assay system described. Cyp11B2 enzyme activity was tested in presence of 1 μM Deoxycorticosterone and variable amounts of inhibitors; Cyp11B1 enzyme activity was tested in presence of 1 μM Deoxycortisol and variable amounts of inhibitors.

human CYP11B1 = target: T2, human CYP11B1 (Homo sapiens, UniProt P15538); test: G-402 cellular enzyme assay, human CYP11B1 (cortisol release, HTRF); type: cell-based; details: G-402 cells, 1 μM Deoxycortisol
T2 construct: expressed in transfected cells
T2 sequence (P15538 25-503): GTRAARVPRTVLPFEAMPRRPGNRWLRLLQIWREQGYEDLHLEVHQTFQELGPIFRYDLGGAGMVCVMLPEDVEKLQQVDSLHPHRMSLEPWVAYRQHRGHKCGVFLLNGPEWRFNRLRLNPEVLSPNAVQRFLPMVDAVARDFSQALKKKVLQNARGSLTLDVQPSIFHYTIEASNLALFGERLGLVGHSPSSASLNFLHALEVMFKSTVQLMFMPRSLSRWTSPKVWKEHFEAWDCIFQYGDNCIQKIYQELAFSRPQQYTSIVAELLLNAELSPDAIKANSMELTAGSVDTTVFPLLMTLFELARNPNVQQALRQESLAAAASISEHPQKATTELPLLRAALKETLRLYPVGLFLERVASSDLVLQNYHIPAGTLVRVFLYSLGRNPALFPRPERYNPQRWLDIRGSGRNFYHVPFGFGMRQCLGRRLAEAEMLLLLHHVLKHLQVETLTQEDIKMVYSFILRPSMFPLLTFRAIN
Excerpt: as §1, §2, §3, §4, §5, §6, §7, §8

Row | SMILES | EC50 (human CYP11B2) | EC50 (human CYP11B1)
1 | CCS(=O)(=O)N1CC[C@@H](Oc2cncc(N3C(=O)c4ccc(Cl)cc4C3(C)C)c2)C1 [Example 447, 5-Chloro-2-[5-((R)-1-ethanesulfonyl-pyrrolidin-3-yloxy)-pyridin-3-yl]-3,3-dimethyl-2,3-dihydro-isoindol-1-one] | 1.9 nM | 233 nM
2 | O=C1c2ccc(Cl)cc2CCN1c1cncc(Cc2c(F)cccc2Cl)c1 [Example 215, 6-Chloro-2-[5-(2-chloro-6-fluoro-benzyl)-pyridin-3-yl]-3,4-dihydro-2H-isoquinolin-1-one] | 29.6 nM | 137 nM
3 | CC1(C)c2cc(Cl)ccc2C(=O)N1c1cncc(N2CCN(S(C)(=O)=O)CC2)c1 [Example 457, 5-Chloro-2-[5-(4-methanesulfonyl-piperazin-1-yl)-pyridin-3-yl]-3,3-dimethyl-2,3-dihydroisoindol-1-one] | 1.8 nM | 298 nM
4 | CC(=O)NC1CCCc2c1cncc2N1C(=O)c2ccc(Cl)cc2C1(C)C (single isomer, unassigned) [Example 467, N—[(R or S)-4-(6-Chloro-1,1-dimethyl-3-oxo-1,3-dihydro-isoindol-2-yl)-5,6,7,8-tetrahydro-isoquinolin-8-yl]-acetamide] | 28.8 nM | 2180 nM
5 | Cc1cncc(N2CCc3cc(Cl)ccc3C2=O)n1 [Example 38, 6-Chloro-2-(6-methyl-pyrazin-2-yl)-3,4-dihydro-2H-isoquinolin-1-one] | 1070 nM | 8390 nM
6 | CCC1c2cc(Cl)ccc2C(=O)N1c1cncc(F)c1 (single isomer, unassigned) [Example 310, (S or R)-5-Chloro-3-ethyl-2-(5-fluoro-pyridin-3-yl)-2,3-dihydro-isoindol-1-one] | 16.5 nM | 3970 nM
7 | O=C1c2ccc(Cl)cc2CCN1c1cncc(CN2CC[C@H](O)C2)c1 [Example 148, 6-Chloro-2-[5-((S)-3-hydroxy-pyrrolidin-1-ylmethyl)-pyridin-3-yl]-3,4-dihydro-2H-isoquinolin-1-one] | 45.1 nM | 139 nM
8 | COc1cncc(N2C(=O)c3ccc(Cl)cc3CC2C)c1 (stereo not drawn) [Example 85, 6-Chloro-2-(5-methoxy-pyridin-3-yl)-3-methyl-3,4-dihydro-2H-isoquinolin-1-one] | 59.6 nM | 2860 nM
9 | CCC1c2cc(Cl)ccc2C(=O)N1c1cccnc1 (stereo not drawn) [Example 125, 5-Chloro-3-ethyl-2-pyridin-3-yl-2,3-dihydro-isoindol-1-one] | 121 nM | 3340 nM
10 | CC1CN(c2cncc(F)c2)C(=O)c2ccc(Cl)cc21 (stereo not drawn) [Example 106, 6-Chloro-2-(5-fluoro-pyridin-3-yl)-4-methyl-3,4-dihydro-2H-isoquinolin-1-one] | 516 nM | 8560 nM
11 | O=C1c2ccc(Cl)cc2C(Cc2ccccc2)N1c1cccnc1 (stereo not drawn) [Example 124, 3-Benzyl-5-chloro-2-pyridin-3-yl-2,3-dihydro-isoindol-1-one] | 1070 nM | 225 nM
12 | CCC(=O)N[C@H]1CCCc2c1cncc2N1C(=O)c2ccc(Cl)cc2[C@@H]1C (single isomer, unassigned) [Example 362, N-[(S or R)-4-((S or R)-5-Chloro-3-methyl-1-oxo-1,3-dihydro-isoindol-2-yl)-5,6,7,8-tetrahydro-isoquinolin-8-yl]-propionamide] | 53.2 nM | 6090 nM
13 | CCC1c2cc(Cl)ccc2C(=O)N1c1cncc(C(C)O)c1 (stereo not drawn) [Example 283, 5-Chloro-3-ethyl-2-[5-(1-hydroxy-ethyl)-pyridin-3-yl]-2,3-dihydro-isoindol-1-one] | 66.7 nM | 633 nM
14 | O=C1c2ccc(Cl)cc2CCN1c1cncc(CN2CCCCS2(=O)=O)c1 [Example 81, 6-Chloro-2-[5-(1,1-dioxo-1λ^6-[1,2]thiazinan-2-ylmethyl)-pyridin-3-yl]-3,4-dihydro-2H-isoquinolin-1-one] | 178 nM | 2360 nM
15 | O=C1c2ccc(Cl)cc2C(C2CC2)N1c1cncc(OC(F)F)c1 (stereo not drawn) [Example 302, 5-Chloro-3-cyclopropyl-2-(5-difluoromethoxy-pyridin-3-yl)-2,3-dihydro-isoindol-1-one] | 93.2 nM | 5190 nM
16 | O=C(c1cncc(N2CCc3cc(Cl)ccc3C2=O)c1)N1CCOCC1 [Example 39, 6-Chloro-2-[5-(morpholine-4-carbonyl)-pyridin-3-yl]-3,4-dihydro-2H-isoquinolin-1-one] | 1090 nM | 10000 nM
17 | O=C1c2ccc(Cl)cc2C2(CC2)N1c1cnccc1Cl [Example 305, 6′-Chloro-2′-(4-chloropyridin-3-yl)spiro[cyclopropane-1,1′-isoindol]-3′(2′H)-one] | 5.4 nM | 860 nM
18 | O=C1c2ccc(Cl)cc2CCN1c1cncc(-c2ccc(Cl)c(F)c2)c1 [Example 240, 6-Chloro-2-[5-(4-chloro-3-fluoro-phenyl)-pyridin-3-yl]-3,4-dihydro-2H-isoquinolin-1-one] | 115 nM | 3270 nM
19 | CC(=O)N1CCC(c2cncc(N3C(=O)c4ccc(Cl)cc4C3(C)C)c2)CC1 [Example 461, 2-(1′-Acetyl-1′,2′,3′,4′,5′,6′-hexahydro-[3,4′]bipyridinyl-5-yl)-5-chloro-3,3-dimethyl-2,3-dihydro-isoindol-1-one] | 4 nM | 361 nM
20 | CC(O)(c1ccccc1)c1cncc(N2CCc3cc(Cl)ccc3C2=O)c1 (stereo not drawn) [Example 35, 6-Chloro-2-[5-(1-hydroxy-1-phenyl-ethyl)-pyridin-3-yl]-3,4-dihydro-2H-isoquinolin-1-one] | 18.8 nM | 146 nM
21 | COc1cncc(N2CC(C)(C)c3cc(Cl)ccc3C2=O)c1 [Example 103, 6-Chloro-2-(5-methoxy-pyridin-3-yl)-4,4-dimethyl-3,4-dihydro-2H-isoquinolin-1-one] | 564 nM | 11000 nM
22 | CC1Cc2cccc(Cl)c2C(=O)N1c1cccnc1 (stereo not drawn) [Example 93, 8-Chloro-3-methyl-2-pyridin-3-yl-3,4-dihydro-2H-isoquinolin-1-one] | 775 nM | 14000 nM
23 | O=C1c2ccc(Cl)cc2CCN1c1cncc(Cc2c(Cl)cccc2Cl)c1 [Example 214, 6-Chloro-2-[5-(2,6-dichloro-benzyl)-pyridin-3-yl]-3,4-dihydro-2H-isoquinolin-1-one] | 63.6 nM | 300 nM
24 | CC[C@@H]1c2cc(Cl)ccc2C(=O)N1c1cncc2c1CC[C@H]2NC(C)=O (single isomer, unassigned) [Example 344, (+)-N—[(R or S)-4-((R or S)-5-Chloro-3-ethyl-1-oxo-1,3-dihydro-isoindol-2-yl)-6,7-dihydro-5H-[2]pyrindin-7-yl]-acetamide] | 31.2 nM | 1500 nM
